Test results reported in patent US20090088574A1, “CRYSTAL OF 1,2-DIHYDROPYRIDINE COMPOUND (TYPE IV)” (EISAI R&D MANAGEMENT CO., LTD., priority 2005, published 2009).

What was measured:
[1] = Physical stability in mixing operation in the presence of water or water-ethanol (1:1) mixed solution (powder X-ray diffraction before/after); assay type: physicochemical; conditions: mixing in agate mortar at room temperature for a few minutes with dropwise water or water-ethanol (1:1) mixed solution, dried at about 60° C. for 2 to 3 hours
Experimental: Physical Stability in Mixing Operation in the Presence of Water or Water-Ethanol (1:1) Mixed Solution
About 60 to 150 mg of crystals obtained in Reference Example A1 (Anhydrous form II) and crystals obtained in Example 1 (Crystal form IV) were placed in an agate mortar, and the mixing operation was carried out at room temperature for a few minutes while the dropwise addition of water (or water-ethanol (1:1) mixed solution) continues. Subsequently, the crystals were dried at about 60° C. for 2 to 3 hours. The powder X-ray diffraction of the crystals obtained and crystals of before mixing operation were each measured under the following measurement conditions.
D8 DISCOVER with GADDS manufactured by Bruker AXS Ltd.
Tube voltage: 40 kV Tube current: 200 mA Scanning range (2θ): 5 to 40° Collimator: 0.3 mm double slit
The powder X-ray diffraction pattern of Anhydrous form II before and after mixing operation is shown in FIG. 3, and the powder X-ray diffraction pattern of Crystal form IV is shown in FIG. 4. The mixing operation of Anhydrous form II in the presence of water was performed twice.

[2] = Chargeability (static potential of the powder after stirring); assay type: physicochemical; conditions: about 1 g stirred for 30 minutes in weighing bottle with fluoroplastic-coated stirring bar
Experimental: About 1 g of respective compounds is weighed into a weighing bottle (diameter of 35 mm). A stirring bar [fluoroplastic (tetrafluoroethylene resin) coating; 20 mm] is placed in the bottle and after the lid is in place, the powders are stirred for 30 minutes. The lid is opened at the same time that stirring is stopped; and the static potential of the powder is measured using a static potential measuring instrument.
STATIRON-DZ3 manufactured by Shishido Electrostatic, Ltd.

AMPA receptor = conditions: see Patent Document 1 (WO/JP01/96308); cited from earlier work

Structure (SMILES)	change of crystal form in mixing operation (physical stability) [1]	static potential of the powder (chargeability) [2]	antagonistic action against AMPA receptor (AMPA receptor)
N#Cc1ccccc1-c1cc(-c2ccccn2)cn(-c2ccccc2)c1=O [Example 1, 3-(2-Cyanophenyl)-5-(2-pyridyl)-1-phenyl-1,2-dihydopyridin-2-one]	do not change their crystal forms		
N#Cc1ccccc1-c1cc(-c2ccccn2)cn(-c2ccccc2)c1=O [Reference Example A1, 3-(2-cyanophenyl)-5-(2-pyridyl)-1-phenyl-1,2-dihydropyridin-2-one]	change their crystal forms	70-100 V	
N#Cc1ccccc1-c1cc(-c2ccccn2)cn(-c2ccccc2)c1=O [compound (1), 3-(2-cyanophenyl)-5-(2-pyridyl)-1-phenyl-1,2-dihydropyridin-2-one]			significant antagonistic action
